Values belong to the molecule of their own block, whether it stands above or below them.
Assays:
[1] = target: G2019S LRRK2 (Homo sapiens, UniProt Q5S007, G2019S); assay: G2019S LRRK2 inhibition (Invitrogen SelectScreen / TR-FRET biochemical assay); parameters: The protein construct used in the assay is GST tagged 969-2527; GST; purchased Invitrogen; settings: for IC50: numeric value
Procedure: IC50s were determined using Invitrogen's SelectScreen® Profiling Service for wild type and LRRK2 G2019S. The test compounds were screened in 1% DMSO (final) in the well.
a) % inhibition is measured at one concentration
b) a 10-point titration is run to ensure the kinase is inhibited within an expected IC50 range
Biochemical Assay Protocol:
Compound potency against wild-type and G2019S LRRK2 is measured via TR-FRET. The IC50, the amount of inhibitor required to inhibitor 50% of the protein under the given assay conditions, is determined by varying the amount of compound (500-0.001 uM) by serial dilution with 12-data points per compound, in duplicate. The substrate (Fluorescein-GAGRLGRDKYKTLRQIRQ) and ATP is fixed at 0.8 uM and 57 uM (KmATP), respectively. All assays are run in Corning low volume […] round bottomed plates. The assay is run in 50 mM Tris-HCl pH8.5, 10 mM MgCl2, 0.01% Brij-35, 1 mM EGTA, 2 mMDTT. The TR-FRET assay is an end-point assay where the reaction with protein, substrate, inhibitor and ATP is incubated for 1 hour at room temperature. The compound is pre-incubated with the protein and substrate prior to initiating the reaction with ATP. Phospho-transfer is detected using a Terbium labeled anti-pLRRKtide that binds to phosphorylated substrate creating FRET transfer when excited at 340 nm. Emissions signals are taken for terbium and FRET induced fluorescein at 495 nm and 520 nm, respectively, using a Biotek Synergy 2 spectrophotometer. The dose response is determined by plotting the emission ratio of 520/495 against the log of the inhibitor concentration. The maximum inhibition and non-inhibition controls is run on all plates. Staurosporine is used as the positive inhibition control and DMSO is used as the negative point control. A 12-point dose curve of Staurosporine is run as a dosing control. The IC50 is determined to be the inhibitor concentration at which 50% inhibition is achieved. The protein construct used in the assay is GST tagged 969-2527. The protein is commercially available from Invitrogen.
Alternatively, compounds of formulas (II), (I), (I-A), (I-B), (I-C), (I-D), (I-D-1), (I-D-2), (I-E), (I-F), (I-G), (I-H), (I-I), (I-I-1), (I-I-2), (I-J), (I-K), (I-L), (I-M), (I-N), (I-Z-1), (I-Z-2), (I-Z-2-a), (I-Z-2-b), (I-Z-2-c), (I-Z-2-d), (I-Z-3-a), (I-Z-3-b), (I-Z-3-c), or (I-Z-3-d) were tested using Invitrogen's SelectScreen® Profiling Service for LRRK2 G2019S.

[2] = target: T1, CHEK1 (Homo sapiens, UniProt O14757); assay: Kinase selectivity panel: CHEK1; assay type: biochemical
T1 sequence (O14757 1-476): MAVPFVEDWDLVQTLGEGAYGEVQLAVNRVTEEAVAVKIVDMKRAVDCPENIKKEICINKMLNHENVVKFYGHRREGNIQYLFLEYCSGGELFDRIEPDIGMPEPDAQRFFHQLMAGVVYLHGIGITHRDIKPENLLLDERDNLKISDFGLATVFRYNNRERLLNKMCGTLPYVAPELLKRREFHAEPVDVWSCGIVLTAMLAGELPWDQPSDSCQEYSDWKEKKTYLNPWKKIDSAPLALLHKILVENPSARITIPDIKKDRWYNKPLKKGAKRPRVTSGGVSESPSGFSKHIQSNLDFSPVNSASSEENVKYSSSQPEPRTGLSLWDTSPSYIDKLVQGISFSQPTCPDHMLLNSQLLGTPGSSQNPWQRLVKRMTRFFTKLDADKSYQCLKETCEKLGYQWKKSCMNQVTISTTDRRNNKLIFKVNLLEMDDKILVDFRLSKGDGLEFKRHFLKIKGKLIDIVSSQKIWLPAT

[3] = target: CDK5/p35 (Homo sapiens, UniProt Q00535); assay: Kinase selectivity panel: CDK5/p35; assay type: biochemical
CDK5/p35, sequence (Q00535 whole entry, species assumed): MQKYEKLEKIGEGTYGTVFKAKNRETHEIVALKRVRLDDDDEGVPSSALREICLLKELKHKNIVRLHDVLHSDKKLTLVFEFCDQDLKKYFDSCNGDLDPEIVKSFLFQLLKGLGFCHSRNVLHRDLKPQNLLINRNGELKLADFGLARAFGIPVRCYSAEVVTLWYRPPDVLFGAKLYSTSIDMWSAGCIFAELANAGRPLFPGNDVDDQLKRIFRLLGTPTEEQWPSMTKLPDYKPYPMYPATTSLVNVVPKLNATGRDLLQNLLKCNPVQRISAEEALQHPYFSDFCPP
CDK5/p35, sequence (Q15078 whole entry partner, species assumed): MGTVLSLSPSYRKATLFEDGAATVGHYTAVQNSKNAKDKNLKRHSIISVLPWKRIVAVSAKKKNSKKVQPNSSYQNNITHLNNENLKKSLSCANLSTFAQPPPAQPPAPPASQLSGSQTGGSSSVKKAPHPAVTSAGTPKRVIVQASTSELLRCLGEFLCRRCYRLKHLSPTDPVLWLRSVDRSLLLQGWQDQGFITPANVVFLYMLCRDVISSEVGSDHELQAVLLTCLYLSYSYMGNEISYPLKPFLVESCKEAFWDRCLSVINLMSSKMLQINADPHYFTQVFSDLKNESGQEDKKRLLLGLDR

[4] = target: CAMK2D (Homo sapiens, UniProt Q13557); assay: Kinase selectivity panel: CAMK2D; assay type: biochemical
CAMK2D, sequence (Q13557 whole entry, species assumed): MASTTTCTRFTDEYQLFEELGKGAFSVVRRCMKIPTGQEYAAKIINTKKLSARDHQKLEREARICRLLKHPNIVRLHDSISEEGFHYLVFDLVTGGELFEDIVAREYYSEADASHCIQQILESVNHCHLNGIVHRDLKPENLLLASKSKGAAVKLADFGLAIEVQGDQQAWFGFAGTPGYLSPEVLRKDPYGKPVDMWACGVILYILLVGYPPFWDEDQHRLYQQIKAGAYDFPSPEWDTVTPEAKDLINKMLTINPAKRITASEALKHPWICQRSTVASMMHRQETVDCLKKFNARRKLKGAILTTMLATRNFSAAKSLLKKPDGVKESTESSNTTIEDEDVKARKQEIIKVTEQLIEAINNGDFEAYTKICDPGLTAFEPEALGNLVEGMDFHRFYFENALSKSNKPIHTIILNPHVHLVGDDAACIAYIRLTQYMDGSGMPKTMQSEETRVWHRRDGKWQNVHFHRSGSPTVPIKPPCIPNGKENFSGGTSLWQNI

[5] = target: T2, AURKA (Homo sapiens, UniProt O14965); assay: Kinase selectivity panel: AURKA; assay type: biochemical
T2 sequence (O14965 1-403): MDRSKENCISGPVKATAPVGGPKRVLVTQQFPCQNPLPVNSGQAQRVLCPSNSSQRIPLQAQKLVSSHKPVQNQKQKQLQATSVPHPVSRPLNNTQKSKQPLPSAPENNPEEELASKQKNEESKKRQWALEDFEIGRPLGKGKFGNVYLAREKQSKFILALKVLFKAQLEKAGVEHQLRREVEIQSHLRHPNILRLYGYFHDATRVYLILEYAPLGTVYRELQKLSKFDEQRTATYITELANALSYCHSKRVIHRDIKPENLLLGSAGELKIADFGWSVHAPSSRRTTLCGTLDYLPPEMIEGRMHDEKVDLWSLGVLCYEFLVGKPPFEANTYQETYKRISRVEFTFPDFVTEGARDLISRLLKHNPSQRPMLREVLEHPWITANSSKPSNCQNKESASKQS

[6] = target: MARK2 (Homo sapiens, UniProt Q7KZI7); assay: Kinase selectivity panel: MARK2; assay type: biochemical
MARK2, sequence (Q7KZI7 whole entry, species assumed): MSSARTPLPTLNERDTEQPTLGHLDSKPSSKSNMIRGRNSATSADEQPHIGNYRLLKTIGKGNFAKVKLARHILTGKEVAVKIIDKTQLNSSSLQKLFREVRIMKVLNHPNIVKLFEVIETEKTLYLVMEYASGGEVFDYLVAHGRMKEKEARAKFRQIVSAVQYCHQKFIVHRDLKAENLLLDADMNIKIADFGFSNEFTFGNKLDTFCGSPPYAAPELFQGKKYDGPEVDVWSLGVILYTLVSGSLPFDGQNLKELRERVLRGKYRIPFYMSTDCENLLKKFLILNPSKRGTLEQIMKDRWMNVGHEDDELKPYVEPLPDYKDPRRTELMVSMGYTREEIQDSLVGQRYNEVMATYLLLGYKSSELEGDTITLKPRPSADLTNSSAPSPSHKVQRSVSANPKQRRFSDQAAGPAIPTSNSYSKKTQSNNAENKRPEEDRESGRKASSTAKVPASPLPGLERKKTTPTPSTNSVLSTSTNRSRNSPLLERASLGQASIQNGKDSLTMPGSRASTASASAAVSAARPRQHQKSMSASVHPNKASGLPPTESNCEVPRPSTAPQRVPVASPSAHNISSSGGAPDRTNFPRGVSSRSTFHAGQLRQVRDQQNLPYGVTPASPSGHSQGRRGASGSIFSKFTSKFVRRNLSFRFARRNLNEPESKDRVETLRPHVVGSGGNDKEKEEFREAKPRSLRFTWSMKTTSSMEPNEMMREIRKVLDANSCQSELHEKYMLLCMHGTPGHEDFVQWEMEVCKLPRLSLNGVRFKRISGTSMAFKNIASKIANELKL

[7] = target: ABL1 (Homo sapiens, UniProt P00519); assay: Kinase selectivity panel: ABL1; assay type: biochemical
ABL1, sequence (P00519 whole entry, species assumed): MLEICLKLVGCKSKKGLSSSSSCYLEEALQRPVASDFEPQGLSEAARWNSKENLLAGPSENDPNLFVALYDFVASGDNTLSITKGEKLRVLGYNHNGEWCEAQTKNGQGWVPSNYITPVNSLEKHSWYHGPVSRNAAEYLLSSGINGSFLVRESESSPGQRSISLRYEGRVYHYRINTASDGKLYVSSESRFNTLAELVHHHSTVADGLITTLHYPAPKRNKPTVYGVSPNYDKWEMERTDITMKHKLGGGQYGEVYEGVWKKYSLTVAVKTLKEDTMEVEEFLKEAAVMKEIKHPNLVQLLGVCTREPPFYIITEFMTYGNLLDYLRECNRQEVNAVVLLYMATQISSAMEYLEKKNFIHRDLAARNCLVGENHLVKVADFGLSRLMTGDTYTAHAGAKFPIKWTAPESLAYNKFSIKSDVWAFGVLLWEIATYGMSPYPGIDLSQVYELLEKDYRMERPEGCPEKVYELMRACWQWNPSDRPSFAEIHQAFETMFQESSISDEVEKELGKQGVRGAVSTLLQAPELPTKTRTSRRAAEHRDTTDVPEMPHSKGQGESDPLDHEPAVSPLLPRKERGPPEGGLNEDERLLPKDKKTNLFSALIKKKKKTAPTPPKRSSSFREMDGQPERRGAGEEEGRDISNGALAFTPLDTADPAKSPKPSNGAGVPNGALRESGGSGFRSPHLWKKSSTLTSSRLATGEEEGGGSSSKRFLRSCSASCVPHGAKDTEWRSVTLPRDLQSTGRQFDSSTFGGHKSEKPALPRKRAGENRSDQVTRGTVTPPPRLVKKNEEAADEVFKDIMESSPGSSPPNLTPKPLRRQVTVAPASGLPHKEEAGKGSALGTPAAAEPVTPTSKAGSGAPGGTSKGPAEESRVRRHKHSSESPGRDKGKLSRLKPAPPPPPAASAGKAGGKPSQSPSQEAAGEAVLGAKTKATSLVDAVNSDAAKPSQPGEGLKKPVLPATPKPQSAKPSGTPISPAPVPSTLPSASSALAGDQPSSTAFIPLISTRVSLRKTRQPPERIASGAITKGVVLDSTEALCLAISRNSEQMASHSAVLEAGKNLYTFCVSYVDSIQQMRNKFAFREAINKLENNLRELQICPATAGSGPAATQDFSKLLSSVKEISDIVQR

[8] = target: T3, IRAK4 (Homo sapiens, UniProt Q9NWZ3); assay: Kinase selectivity panel: IRAK4; assay type: biochemical
T3 sequence (Q9NWZ3 1-460): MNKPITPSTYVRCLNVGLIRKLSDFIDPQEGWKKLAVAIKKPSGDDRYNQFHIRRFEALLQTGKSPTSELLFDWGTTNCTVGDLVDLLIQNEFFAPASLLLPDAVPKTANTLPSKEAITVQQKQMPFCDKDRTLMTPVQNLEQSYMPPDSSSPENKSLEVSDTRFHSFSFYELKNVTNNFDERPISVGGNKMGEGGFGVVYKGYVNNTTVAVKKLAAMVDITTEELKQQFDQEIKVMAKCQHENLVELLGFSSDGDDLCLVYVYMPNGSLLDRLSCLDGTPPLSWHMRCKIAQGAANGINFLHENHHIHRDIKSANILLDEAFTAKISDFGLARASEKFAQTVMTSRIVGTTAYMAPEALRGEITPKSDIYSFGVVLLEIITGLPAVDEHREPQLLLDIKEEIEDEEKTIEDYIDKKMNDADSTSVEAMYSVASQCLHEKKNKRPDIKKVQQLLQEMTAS

G2019S LRRK2, sequence (Q5S007 969-2527 G2019S): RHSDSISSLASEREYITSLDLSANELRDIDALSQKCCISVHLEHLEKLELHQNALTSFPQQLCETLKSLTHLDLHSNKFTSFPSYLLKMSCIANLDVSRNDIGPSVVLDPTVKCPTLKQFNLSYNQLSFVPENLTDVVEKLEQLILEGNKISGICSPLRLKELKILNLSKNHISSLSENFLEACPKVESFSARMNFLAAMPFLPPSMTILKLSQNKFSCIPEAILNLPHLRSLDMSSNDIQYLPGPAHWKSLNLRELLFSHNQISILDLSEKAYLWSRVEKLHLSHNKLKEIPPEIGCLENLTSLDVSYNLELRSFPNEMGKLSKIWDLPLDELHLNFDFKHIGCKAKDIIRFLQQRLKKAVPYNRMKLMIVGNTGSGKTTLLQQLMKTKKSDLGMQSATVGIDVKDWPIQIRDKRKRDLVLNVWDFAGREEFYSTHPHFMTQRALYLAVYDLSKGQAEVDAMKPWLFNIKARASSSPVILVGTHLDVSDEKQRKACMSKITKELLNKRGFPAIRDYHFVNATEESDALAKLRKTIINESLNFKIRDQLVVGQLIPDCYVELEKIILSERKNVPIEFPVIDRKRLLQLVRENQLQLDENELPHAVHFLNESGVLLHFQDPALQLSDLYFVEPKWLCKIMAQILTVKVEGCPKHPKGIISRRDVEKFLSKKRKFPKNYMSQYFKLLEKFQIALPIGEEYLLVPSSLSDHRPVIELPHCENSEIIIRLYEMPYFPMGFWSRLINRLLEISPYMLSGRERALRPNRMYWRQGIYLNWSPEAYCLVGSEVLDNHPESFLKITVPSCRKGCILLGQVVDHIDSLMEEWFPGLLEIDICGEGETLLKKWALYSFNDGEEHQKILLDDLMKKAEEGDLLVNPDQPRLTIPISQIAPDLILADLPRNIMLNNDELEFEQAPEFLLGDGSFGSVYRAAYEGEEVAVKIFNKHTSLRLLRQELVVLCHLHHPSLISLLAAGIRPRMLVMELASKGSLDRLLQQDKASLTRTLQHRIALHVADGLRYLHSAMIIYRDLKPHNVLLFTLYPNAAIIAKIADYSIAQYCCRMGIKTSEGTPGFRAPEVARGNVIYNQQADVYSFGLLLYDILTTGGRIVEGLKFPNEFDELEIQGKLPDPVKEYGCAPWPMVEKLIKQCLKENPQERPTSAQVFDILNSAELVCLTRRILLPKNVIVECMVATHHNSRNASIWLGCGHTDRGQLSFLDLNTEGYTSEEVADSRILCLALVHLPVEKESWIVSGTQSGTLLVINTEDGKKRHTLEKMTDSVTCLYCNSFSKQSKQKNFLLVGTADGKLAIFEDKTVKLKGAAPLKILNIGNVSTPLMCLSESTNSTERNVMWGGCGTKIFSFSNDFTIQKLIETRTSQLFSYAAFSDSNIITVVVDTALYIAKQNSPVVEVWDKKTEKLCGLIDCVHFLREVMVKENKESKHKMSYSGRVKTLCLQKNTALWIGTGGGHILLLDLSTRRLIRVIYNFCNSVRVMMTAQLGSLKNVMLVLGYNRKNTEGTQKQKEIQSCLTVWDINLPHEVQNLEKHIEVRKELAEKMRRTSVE

inhibition at 0.1 µM [1]: 22%
Structure (SMILES): Cc1cc(/C=C2\C(=O)Nc3ccccc32)[nH]n1 [Compound 1, (3Z)-3-[(3-methyl-1H-pyrazol-5-yl)methylene]indolin-2-one]

IC50 [1]: 181 nM
Structure (SMILES): Cc1cnc(/C=C2\C(=O)Nc3ccccc32)[nH]1 [Compound 2, (3Z)-3-[(5-methyl-1H-imidazol-2-yl)methylene]indolin-2-one]

IC50 [1]: 38 nM
Structure (SMILES): Cc1ncc(/C=C2\C(=O)Nc3ccc(F)cc32)[nH]1 [Compound 3, (3Z)-5-fluoro-3-[(2-methyl-1H-imidazol-5-yl)methylene]indolin-2-one]

IC50 [1]: 6.9 nM
Structure (SMILES): COc1ccc2c(c1)/C(=C/c1cnc(C)[nH]1)C(=O)N2 [Compound 4, (3Z)-5-methoxy-3-[(2-methyl-1H-imidazol-5-yl)methylene]indolin-2-one]

inhibition at 10 µM [1]: 30%
Structure (SMILES): O=C1Nc2ccccc2/C1=C/c1cc2cccnc2[nH]1 [Compound 5, (3Z)-3-(1H-pyrrolo[2,3-b]pyridin-2-ylmethylene)indolin-2-one]

IC50 [1]: 127 nM
Structure (SMILES): COc1ccc2c(c1)NC(=O)/C2=C\c1cnc(C)[nH]1 [Compound 6, (3Z)-6-methoxy-3-[(2-methyl-1H-imidazol-5-yl)methylene]indolin-2-one]

inhibition at 0.1 µM [1]: -5%
Structure (SMILES): O=C1Nc2ccccc2/C1=C\c1nc2ccccc2s1 [Compound 7, (3E)-3-(1,3-benzothiazol-2-ylmethylene)indolin-2-one]

IC50 [1]: 872 nM
Structure (SMILES): O=C1Nc2ccccc2/C1=C\c1cnc2ccccc2c1 [Compound 8, (3E)-3-(3-quinolylmethylene)indolin-2-one]

inhibition at 10 µM [1]: 11%
Structure (SMILES): O=C1Nc2ccccc2/C1=C\c1nc2ccccc2o1 [Compound 9, (3E)-3-(1,3-benzoxazol-2-ylmethylene)indolin-2-one]

IC50 [1]: 16.4 nM
Structure (SMILES): Cc1ncc(/C=C2\C(=O)Nc3ccc(Cl)cc32)[nH]1 [Compound 10, (3Z)-5-chloro-3-[(2-methyl-1H-imidazol-5-yl)methylene]indolin-2-one]

IC50 [1]: 41.2 nM
Structure (SMILES): Cc1ncc(/C=C2\C(=O)Nc3ccc(OC(F)(F)F)cc32)[nH]1 [Compound 11, (3Z)-3-[(2-methyl-1H-imidazol-5-yl)methylene]-5-(trifluoromethoxy)indolin-2-one]

IC50 [2]: > 10000 nM | IC50 [3]: > 10000 nM | IC50 [1]: 7.6 nM | IC50 [4]: 275 nM | IC50 [5]: 5260 nM | IC50 [6]: 1840 nM | IC50 [7]: > 10000 nM | IC50 [8]: 3440 nM
Structure (SMILES): COc1ccc2c(c1)/C(=C/c1cnc(C(C)C)[nH]1)C(=O)N2 [Compound 12, (3Z)-3-[(2-isopropyl-1H-imidazol-5-yl)methylene]-5-methoxy-indolin-2-one]

IC50 [1]: 3.1 nM
Structure (SMILES): CCOc1ccc2c(c1)/C(=C/c1cnc(C)[nH]1)C(=O)N2 [Compound 13, (3Z)-5-ethoxy-3-[(2-methyl-1H-imidazol-5-yl)methylene]indolin-2-one]

IC50 [2]: 999 nM | IC50 [3]: 258 nM | IC50 [1]: 1.2 nM | IC50 [4]: 615 nM | IC50 [5]: 50 nM | IC50 [6]: 434 nM | IC50 [7]: 860 nM | IC50 [8]: 655 nM
Structure (SMILES): Cc1ncc(/C=C2\C(=O)Nc3ccc(OC(C)C)cc32)[nH]1 [Compound 14, (3Z)-5-isopropoxy-3-[(2-methyl-1H-imidazol-5-yl)methylene]indolin-2-one]

IC50 [1]: 125 nM
Structure (SMILES): Cc1ncc(/C=C2\C(=O)Nc3ccc(S(C)(=O)=O)cc32)[nH]1 [Compound 15, (3Z)-3-[(2-methyl-1H-imidazol-5-yl)methylene]-5-methylsulfonyl-indolin-2-one]

IC50 [1]: 3.5 nM
Structure (SMILES): CCc1ncc(/C=C2\C(=O)Nc3ccc(OC)cc32)[nH]1 [Compound 16, (3Z)-3-[(2-ethyl-1H-imidazol-5-yl)methylene]-5-methoxy-indolin-2-one]

IC50 [1]: 38.7 nM
Structure (SMILES): COCc1ncc(/C=C2\C(=O)Nc3ccc(OC)cc32)[nH]1 [Compound 17, (3Z)-5-methoxy-3-[[2-(methoxymethyl)-1H-imidazol-5-yl]methylene]indolin-2-one]

IC50 [2]: > 10000 nM | IC50 [3]: > 10000 nM | IC50 [1]: 43.9 nM | IC50 [4]: 1470 nM | IC50 [5]: > 10000 nM | IC50 [6]: > 10000 nM | IC50 [7]: > 10000 nM | IC50 [8]: > 10000 nM
Structure (SMILES): COc1ccc2c(c1)/C(=C/c1cnc(C(C)(C)C)[nH]1)C(=O)N2 [Compound 19, (3Z)-3-[(2-tert-butyl-1H-imidazol-5-yl)methylene]-5-methoxy-indolin-2-one]

Source: patent US20140205537A1, “LRRK2 INHIBITORS” (ZENOBIA THERAPEUTICS, INC., priority 2011, published 2014)
